Laboratory results published in paper doi:10.1101/2021.05.29.446083v1 (biorxiv, 2021).
Changes are numbered by the printed parent chain.

Legend:
5-HT1F [1] = target: T1, 5-HT1F (Homo sapiens, UniProt P30939, I104A); assay: NanoBiT Gi recruitment assay; type: cell-based
T1 sequence (P30939 1-366 I104A): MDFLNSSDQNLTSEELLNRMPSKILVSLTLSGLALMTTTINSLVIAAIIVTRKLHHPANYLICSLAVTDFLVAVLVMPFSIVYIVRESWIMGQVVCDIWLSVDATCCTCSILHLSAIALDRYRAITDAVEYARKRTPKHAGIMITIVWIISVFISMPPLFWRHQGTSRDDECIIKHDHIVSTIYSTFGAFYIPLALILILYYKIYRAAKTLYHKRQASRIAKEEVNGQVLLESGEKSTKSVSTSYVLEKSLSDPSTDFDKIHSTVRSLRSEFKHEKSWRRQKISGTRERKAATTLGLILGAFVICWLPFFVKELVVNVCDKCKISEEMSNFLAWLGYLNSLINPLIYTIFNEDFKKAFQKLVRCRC

5-HT1F [2] = target: T2, 5-HT1F (Homo sapiens, UniProt P30939, F310A); assay: NanoBiT Gi recruitment assay; type: cell-based
T2 sequence (P30939 1-366 F310A): T1 sequence (P30939 1-366 I104A) with A104I, F310A

5-HT1F [3] = target: T3, 5-HT1F (Homo sapiens, UniProt P30939); assay: NanoBiT Gi recruitment assay; type: cell-based
T3 sequence (P30939 1-366): T1 sequence (P30939 1-366 I104A) with A104I

5-HT1F–Gi1 complex = 5-HT1F–Gi1 complex (Homo sapiens, UniProt P30939); assay: cryo-EM structure, […] Å; conditions: orthosteric and extended binding pocket; 10 μM lasmiditan, pH 7.4

**Q.** What does the source list for `CN1CCC(C(=O)c2cccc(NC(=O)c3c(F)cc(F)cc3F)n2)CC1` [lasmiditan]?
**A.** EC50 (5-HT1F [1]): 2190 nM; EC50 (5-HT1F [2]): > 100000 nM; EC50 (5-HT1F [3]): 30.2 nM; cryo-EM structure, 3.4 Å (5-HT1F–Gi1 complex): the lasmiditan-bound 5-HT1F–Gi complex
